# Results: patent US12077503B2, “Substituted cyclic amides and their use as herbicides” (FMC CORPORATION, priority 2015, dated 2024)
# What was measured:
# Assay in all cases: Test C postemergence
# Type in all cases: in vivo
# Details in all cases: scale 0 to 100, 0 no effect, 100 complete control
# [1] = test system: crabgrass, large (large crabgrass, Digitaria sanguinalis)
# Summary of the method: (§1)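 Preemergence application to seeds in loam/sand soil, or foliar (postemergence) application to plants 2–18 cm tall in peat moss/vermiculite medium; surfactant-containing non-phytotoxic solvent vehicle; greenhouse. Visual injury vs controls at 13–15 d; 0 = no effect, 100 = complete control.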
# corn (Zea mays) = test system: corn (Zea mays)
# Summary of the method: as §1
# [2] = test system: foxtail, giant (giant foxtail, Setaria faberii)
# Summary of the method: as §1
# [3] = test system: barnyardgrass (Echinochloa crus-galli)
# Summary of the method: as §1
# soybean (Glycine max) = test system: soybean (Glycine max)
# Summary of the method: as §1
# [4] = test system: ragweed (common ragweed, Ambrosia elatior)
# Summary of the method: as §1
# Kochia (Kochia scoparia) = test system: Kochia (Kochia scoparia)
# Summary of the method: as §1
# [5] = test system: waterhemp (common waterhemp, Amaranthus rudis)
# Summary of the method: as §1
# [6] = test system: nutsedge, yellow (yellow nutsedge, Cyperus esculentus)
# Summary of the method: as §1
# [7] = test system: Galium (catchweed bedstraw, Galium aparine)
# Summary of the method: as §1
# [8] = test system: wheat (winter wheat, Triticum aestivum)
# Summary of the method: as §1
# [9] = test system: velvetleaf (Abutilon theophrasti)
# Summary of the method: as §1
# [10] = test system: pigweed (Amaranthus retroflexus)
# Summary of the method: as §1
# [11] = test system: chickweed (common chickweed, Stellaria media)
# Summary of the method: as §1
# [12] = test system: blackgrass (Alopecurus myosuroides)
# Summary of the method: as §1
# [13] = test system: ryegrass, Italian (Italian ryegrass, Lolium multiflorum)
# Summary of the method: as §1
# [14] = test system: oilseed rape (Brassica napus)
# Summary of the method: as §1
# [15] = test system: johnsongrass (Sorghum halepense)
# Summary of the method: as §1
structure (smiles),measurement,setting,value
"CN1C[C@H](c2ccc(F)c(F)c2)[C@@H](C(=O)Nc2cccc(F)c2F)C1=O [Compound 639, (3S,4S)—N-(2,3-difluorophenyl)-4-(3,4-difluorophenyl)-1-methyl-2-oxo-3-pyrrolidinecarboxamide]","Plant response rating, Crabgrass, Large",[1]; 31 g ai/ha,60
same,"Plant response rating, Crabgrass, Large",[1]; 62 g ai/ha,70
same,"Plant response rating, Crabgrass, Large",[1]; 125 g ai/ha,70
same,"Plant response rating, Crabgrass, Large",[1]; 250 g ai/ha,80
same,"Plant response rating, Corn",corn (Zea mays); 31 g ai/ha,0
same,"Plant response rating, Corn",corn (Zea mays); 62 g ai/ha,0
same,"Plant response rating, Corn",corn (Zea mays); 125 g ai/ha,0
same,"Plant response rating, Corn",corn (Zea mays); 250 g ai/ha,35
same,"Plant response rating, Foxtail, Giant",[2]; 31 g ai/ha,35
same,"Plant response rating, Foxtail, Giant",[2]; 62 g ai/ha,60
same,"Plant response rating, Foxtail, Giant",[2]; 125 g ai/ha,80
same,"Plant response rating, Foxtail, Giant",[2]; 250 g ai/ha,85
same,"Plant response rating, Barnyardgrass",[3]; 31 g ai/ha,20
same,"Plant response rating, Barnyardgrass",[3]; 62 g ai/ha,40
same,"Plant response rating, Barnyardgrass",[3]; 125 g ai/ha,70
same,"Plant response rating, Barnyardgrass",[3]; 250 g ai/ha,85
same,"Plant response rating, Soybean",soybean (Glycine max); 31 g ai/ha,0
same,"Plant response rating, Soybean",soybean (Glycine max); 62 g ai/ha,10
same,"Plant response rating, Soybean",soybean (Glycine max); 125 g ai/ha,15
same,"Plant response rating, Soybean",soybean (Glycine max); 250 g ai/ha,25
same,"Plant response rating, Ragweed",[4]; 31 g ai/ha,0
same,"Plant response rating, Ragweed",[4]; 62 g ai/ha,10
same,"Plant response rating, Ragweed",[4]; 125 g ai/ha,50
same,"Plant response rating, Ragweed",[4]; 250 g ai/ha,65
same,"Plant response rating, Kochia",Kochia (Kochia scoparia); 31 g ai/ha,40
same,"Plant response rating, Kochia",Kochia (Kochia scoparia); 62 g ai/ha,50
same,"Plant response rating, Kochia",Kochia (Kochia scoparia); 125 g ai/ha,80
same,"Plant response rating, Kochia",Kochia (Kochia scoparia); 250 g ai/ha,85
same,"Plant response rating, Waterhemp",[5]; 31 g ai/ha,10
same,"Plant response rating, Waterhemp",[5]; 62 g ai/ha,25
same,"Plant response rating, Waterhemp",[5]; 125 g ai/ha,30
same,"Plant response rating, Waterhemp",[5]; 250 g ai/ha,25
same,"Plant response rating, Nutsedge, Yellow",[6]; 31 g ai/ha,0
same,"Plant response rating, Nutsedge, Yellow",[6]; 62 g ai/ha,0
same,"Plant response rating, Nutsedge, Yellow",[6]; 125 g ai/ha,0
same,"Plant response rating, Nutsedge, Yellow",[6]; 250 g ai/ha,10
same,"Plant response rating, Galium",[7]; 31 g ai/ha,50
same,"Plant response rating, Galium",[7]; 62 g ai/ha,50
same,"Plant response rating, Galium",[7]; 125 g ai/ha,70
same,"Plant response rating, Galium",[7]; 250 g ai/ha,70
same,"Plant response rating, Wheat",[8]; 31 g ai/ha,0
same,"Plant response rating, Wheat",[8]; 62 g ai/ha,0
same,"Plant response rating, Wheat",[8]; 125 g ai/ha,0
same,"Plant response rating, Wheat",[8]; 250 g ai/ha,0
same,"Plant response rating, Velvetleaf",[9]; 31 g ai/ha,35
same,"Plant response rating, Velvetleaf",[9]; 62 g ai/ha,60
same,"Plant response rating, Velvetleaf",[9]; 125 g ai/ha,50
same,"Plant response rating, Velvetleaf",[9]; 250 g ai/ha,60
same,"Plant response rating, Pigweed",[10]; 31 g ai/ha,10
same,"Plant response rating, Pigweed",[10]; 62 g ai/ha,45
same,"Plant response rating, Pigweed",[10]; 125 g ai/ha,40
same,"Plant response rating, Pigweed",[10]; 250 g ai/ha,45
same,"Plant response rating, Chickweed",[11]; 31 g ai/ha,40
same,"Plant response rating, Chickweed",[11]; 62 g ai/ha,40
same,"Plant response rating, Chickweed",[11]; 125 g ai/ha,50
same,"Plant response rating, Chickweed",[11]; 250 g ai/ha,90
same,"Plant response rating, Blackgrass",[12]; 31 g ai/ha,0
same,"Plant response rating, Blackgrass",[12]; 62 g ai/ha,0
same,"Plant response rating, Blackgrass",[12]; 125 g ai/ha,5
same,"Plant response rating, Blackgrass",[12]; 250 g ai/ha,10
same,"Plant response rating, Ryegrass, Italian",[13]; 31 g ai/ha,0
same,"Plant response rating, Ryegrass, Italian",[13]; 62 g ai/ha,0
same,"Plant response rating, Ryegrass, Italian",[13]; 125 g ai/ha,5
same,"Plant response rating, Ryegrass, Italian",[13]; 250 g ai/ha,10
same,"Plant response rating, Oilseed Rape",[14]; 31 g ai/ha,30
same,"Plant response rating, Oilseed Rape",[14]; 62 g ai/ha,30
same,"Plant response rating, Oilseed Rape",[14]; 125 g ai/ha,40
same,"Plant response rating, Oilseed Rape",[14]; 250 g ai/ha,50
same,"Plant response rating, Johnsongrass",[15]; 31 g ai/ha,0
same,"Plant response rating, Johnsongrass",[15]; 62 g ai/ha,0
same,"Plant response rating, Johnsongrass",[15]; 125 g ai/ha,0
same,"Plant response rating, Johnsongrass",[15]; 250 g ai/ha,0
